Measurements published in patent publication US20100069387A1, “IKK Inhibitors for the Treatment of Endometriosis” (priority 2005, published 2010).
Values belong to the molecule of their own block, whether it stands above or below them.

Columns and labels:
[1] = cited from earlier work
endometriotic lesions [2] = assay: Nude mouse xenograft model of endometriosis (human endometrial tissue injected in ovarectomized nude mice); type: in vivo; details: for Lesion (% Progesterone) Compared to progesterone treated group, decrease: treatment started 10 days after tissue injection
Experimental: Human endometrial tissue was injected in ovarectomized nude mice to establish the disease (Bruner-Tran et al 2002). In brief, endometrial biopsies obtained from normal volunteers or from endometriotic patients were cut into small pieces and cultured in the presence of estradiol for 24 h. Treated tissues, were injected either subcutaneously or intraperitoneally into ovarectomized nude mice with estradiol implant. Within 2-4 days of injection, ectopic endometriotic lesions develop in animals. Treatment with either progesterone or IKK inhibitor-5 (1-(4-{4-[4-(4-Chloro-phenyl)-pyrimidin-2-ylamino]-benzoyl}-piperazin-1-yl)-ethanone) was started 10 days following the injection of tissue. The compound was administered at a dose of 10 mg/kg and 30 mg/kg/animal for 15 days. […] Following the completion of treatment, animals were sacrificed, lesions developed from the transplanted tissue found in both subcutaneous and intraperitoneal sites, were measured (both size and number).
The IKK inhibitor treatment had no effect on the uterine weight and size of the animals.

endometriotic lesions [3] = details: control treatment; earlier work using this model; cited from earlier work
endometriotic lesions [4] = details: experimental model of endometriosis; cited from earlier work
[5] = 10 mg/kg × 15 days, listed as IKK inhibitor
[6] = 30 mg/kg × 15 days, listed as IKK inhibitor

Molecule: C#C[C@]1(O)CC[C@H]2[C@@H]3CCC4=Cc5oncc5C[C@]4(C)[C@H]3CC[C@@]21C [Danazol]
recurrence rates ([1]; after up to 4 years): 40%-50% | patients suffering from pain with improved symptoms ([1]; endometriosis patients): 66-100%

effect on the uterine weight and size of the animals (endometriotic lesions [2]; nude mice, 15 days treatment): no effect
Molecule: CC(=O)N1CCN(C(=O)c2ccc(Nc3nccc(-c4ccc(Cl)cc4)n3)cc2)CC1 [IKK inhibitor-5, 1-(4-{4-[4-(4-Chloro-phenyl)-pyrimidin-2-ylamino]-benzoyl}-piperazin-1-yl)-ethanone]
Lesion size, decrease (endometriotic lesions [2]; 10 mg/kg × 15 days): 90% Decrease | Lesion (% Progesterone) Compared to progesterone treated group, decrease (endometriotic lesions [2]; 10 mg/kg × 15 days): 125% Decrease | Lesion (% Progesterone) Compared to progesterone treated group, decrease (endometriotic lesions [2]; [5]): 125% | Lesion size, decrease (endometriotic lesions [2]; [5]): 90% | Lesion size, decrease (endometriotic lesions [2]; 30 mg/kg × 15 days): 75% Decrease | Lesion (% Progesterone) Compared to progesterone treated group, decrease (endometriotic lesions [2]; 30 mg/kg × 15 days): 100% Decrease | Lesion (% Progesterone) Compared to progesterone treated group, decrease (endometriotic lesions [2]; [6]): 100% | Lesion size, decrease (endometriotic lesions [2]; [6]): 75%

Molecule: CC(=O)[C@H]1CC[C@H]2[C@@H]3CCC4=CC(=O)CC[C@]4(C)[C@H]3CC[C@]12C [progesterone]
disease progression (endometriotic lesions [3]): prevents disease progression

B1: rh-TBP-1: recombinant human TNFα binding protein (protein, UniProt P19438 30-211, looked up)
extracellular domain: LVPHLGDREKRDSVCPQGKYIHPQNNSICCTKCHKGTYLYNDCPGPGQDTDCRECESGSFTASENHLRHCLSCSKCRKEMGQVEISSCTVDRDTVCGCRKNQYRHYWSENLFQCFNCSLCLNGTVHLSCQEKQNTVCTCHAGFFLRENECVSCSNCKKSLECTKLCLPQIENVKGTEDSGTT
modifications: extracellular domain
size and severity of endometriotic lesions (endometriotic lesions [4]): effective in reducing the size and severity of endometriotic lesions
